According to ChEMBL document CHEMBL1201862, “PubChem BioAssay data set” (2004):
The source made the active and inactive calls.

Tests used:
Format in all cases: functional
[1] = biological target: Serine/threonine-protein kinase PLK3 (Homo sapiens, UniProt Q9H4B4)
[2] = biological target: T1, Testis-specific serine/threonine-protein kinase 2 (Homo sapiens, UniProt Q96PF2);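 further: part of the Navigating the Kinome panel, target entry STK22B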
T1 sequence (Q96PF2 whole entry): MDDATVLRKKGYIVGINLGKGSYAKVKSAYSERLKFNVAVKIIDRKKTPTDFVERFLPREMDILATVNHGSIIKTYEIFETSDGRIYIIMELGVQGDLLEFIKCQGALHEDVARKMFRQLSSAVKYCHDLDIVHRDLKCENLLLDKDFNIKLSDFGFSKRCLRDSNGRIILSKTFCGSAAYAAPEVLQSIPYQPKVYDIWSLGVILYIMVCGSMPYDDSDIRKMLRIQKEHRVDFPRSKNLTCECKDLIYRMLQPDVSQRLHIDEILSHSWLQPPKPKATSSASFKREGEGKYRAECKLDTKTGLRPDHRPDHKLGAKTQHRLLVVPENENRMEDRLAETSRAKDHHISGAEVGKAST

[3] = biological target: Casein kinase II subunit alpha (Homo sapiens, UniProt P68400)
[4] = biological target: Serine/threonine-protein kinase PAK 4 (Homo sapiens, UniProt O96013);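 further: value obtained within a kinome profiling panel in which PAK4 was one of the panel members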
Sequence of Serine/threonine-protein kinase PAK 4 (O96013 whole entry): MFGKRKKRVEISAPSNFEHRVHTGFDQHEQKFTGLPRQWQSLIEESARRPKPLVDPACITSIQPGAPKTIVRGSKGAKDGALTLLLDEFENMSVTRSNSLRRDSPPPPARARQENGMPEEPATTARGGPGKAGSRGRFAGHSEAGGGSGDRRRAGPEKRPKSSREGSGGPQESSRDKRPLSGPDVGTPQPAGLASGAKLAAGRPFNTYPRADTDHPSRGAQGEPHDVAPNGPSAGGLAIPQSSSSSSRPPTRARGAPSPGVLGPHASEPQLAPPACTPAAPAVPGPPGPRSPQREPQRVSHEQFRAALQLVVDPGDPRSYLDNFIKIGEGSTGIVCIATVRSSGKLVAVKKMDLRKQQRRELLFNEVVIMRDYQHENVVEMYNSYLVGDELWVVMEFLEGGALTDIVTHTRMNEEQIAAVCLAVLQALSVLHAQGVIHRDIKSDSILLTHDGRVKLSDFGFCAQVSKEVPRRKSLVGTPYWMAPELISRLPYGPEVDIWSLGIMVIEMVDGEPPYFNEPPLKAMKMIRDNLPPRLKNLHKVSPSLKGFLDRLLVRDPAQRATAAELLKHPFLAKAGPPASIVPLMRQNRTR

[5] = biological target: Serine/threonine-protein kinase PAK 1 (Homo sapiens, UniProt Q13153)
[6] = biological target: T2, Tyrosine-protein kinase JAK3 (Homo sapiens, UniProt P52333)
T2 sequence (P52333 whole entry): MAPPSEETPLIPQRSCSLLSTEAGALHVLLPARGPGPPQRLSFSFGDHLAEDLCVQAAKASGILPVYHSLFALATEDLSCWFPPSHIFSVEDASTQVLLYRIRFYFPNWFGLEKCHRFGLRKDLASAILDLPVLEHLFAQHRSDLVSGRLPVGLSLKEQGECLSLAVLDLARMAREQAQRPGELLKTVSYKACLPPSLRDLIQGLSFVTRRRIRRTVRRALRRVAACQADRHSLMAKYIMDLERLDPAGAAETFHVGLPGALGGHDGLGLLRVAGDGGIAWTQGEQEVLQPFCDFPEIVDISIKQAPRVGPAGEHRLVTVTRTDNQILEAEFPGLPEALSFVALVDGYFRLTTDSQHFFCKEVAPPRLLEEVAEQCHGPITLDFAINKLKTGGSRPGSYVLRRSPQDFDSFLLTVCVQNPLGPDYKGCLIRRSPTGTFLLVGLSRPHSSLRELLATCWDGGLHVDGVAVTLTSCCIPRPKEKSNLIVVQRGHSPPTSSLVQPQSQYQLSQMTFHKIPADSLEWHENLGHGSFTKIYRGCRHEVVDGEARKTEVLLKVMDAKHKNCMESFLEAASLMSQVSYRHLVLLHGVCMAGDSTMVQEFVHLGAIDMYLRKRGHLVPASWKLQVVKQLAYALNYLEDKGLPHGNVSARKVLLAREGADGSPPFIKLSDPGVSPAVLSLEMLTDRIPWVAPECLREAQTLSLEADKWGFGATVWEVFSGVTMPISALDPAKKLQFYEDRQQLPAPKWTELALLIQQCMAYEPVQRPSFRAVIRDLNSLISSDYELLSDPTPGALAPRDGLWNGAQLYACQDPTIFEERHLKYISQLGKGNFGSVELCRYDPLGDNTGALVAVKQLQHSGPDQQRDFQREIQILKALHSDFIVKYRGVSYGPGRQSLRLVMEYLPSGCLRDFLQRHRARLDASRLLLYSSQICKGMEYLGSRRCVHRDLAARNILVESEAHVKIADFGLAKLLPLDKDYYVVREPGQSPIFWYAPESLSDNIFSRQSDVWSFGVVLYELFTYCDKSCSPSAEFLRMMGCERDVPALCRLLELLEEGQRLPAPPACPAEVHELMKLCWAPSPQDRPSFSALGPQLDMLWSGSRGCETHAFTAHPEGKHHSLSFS

[7] = biological target: Tyrosine-protein kinase Blk (Homo sapiens, UniProt P51451);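 further: obtained as one member of a kinome-wide kinase assay panel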
[8] = biological target: Homeodomain-interacting protein kinase 2 (Homo sapiens, UniProt Q9H2X6);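 further: measured within a kinome-wide kinase profiling panel, HIPK2 being one panel member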
Sequence of Homeodomain-interacting protein kinase 2 (Q9H2X6 whole entry): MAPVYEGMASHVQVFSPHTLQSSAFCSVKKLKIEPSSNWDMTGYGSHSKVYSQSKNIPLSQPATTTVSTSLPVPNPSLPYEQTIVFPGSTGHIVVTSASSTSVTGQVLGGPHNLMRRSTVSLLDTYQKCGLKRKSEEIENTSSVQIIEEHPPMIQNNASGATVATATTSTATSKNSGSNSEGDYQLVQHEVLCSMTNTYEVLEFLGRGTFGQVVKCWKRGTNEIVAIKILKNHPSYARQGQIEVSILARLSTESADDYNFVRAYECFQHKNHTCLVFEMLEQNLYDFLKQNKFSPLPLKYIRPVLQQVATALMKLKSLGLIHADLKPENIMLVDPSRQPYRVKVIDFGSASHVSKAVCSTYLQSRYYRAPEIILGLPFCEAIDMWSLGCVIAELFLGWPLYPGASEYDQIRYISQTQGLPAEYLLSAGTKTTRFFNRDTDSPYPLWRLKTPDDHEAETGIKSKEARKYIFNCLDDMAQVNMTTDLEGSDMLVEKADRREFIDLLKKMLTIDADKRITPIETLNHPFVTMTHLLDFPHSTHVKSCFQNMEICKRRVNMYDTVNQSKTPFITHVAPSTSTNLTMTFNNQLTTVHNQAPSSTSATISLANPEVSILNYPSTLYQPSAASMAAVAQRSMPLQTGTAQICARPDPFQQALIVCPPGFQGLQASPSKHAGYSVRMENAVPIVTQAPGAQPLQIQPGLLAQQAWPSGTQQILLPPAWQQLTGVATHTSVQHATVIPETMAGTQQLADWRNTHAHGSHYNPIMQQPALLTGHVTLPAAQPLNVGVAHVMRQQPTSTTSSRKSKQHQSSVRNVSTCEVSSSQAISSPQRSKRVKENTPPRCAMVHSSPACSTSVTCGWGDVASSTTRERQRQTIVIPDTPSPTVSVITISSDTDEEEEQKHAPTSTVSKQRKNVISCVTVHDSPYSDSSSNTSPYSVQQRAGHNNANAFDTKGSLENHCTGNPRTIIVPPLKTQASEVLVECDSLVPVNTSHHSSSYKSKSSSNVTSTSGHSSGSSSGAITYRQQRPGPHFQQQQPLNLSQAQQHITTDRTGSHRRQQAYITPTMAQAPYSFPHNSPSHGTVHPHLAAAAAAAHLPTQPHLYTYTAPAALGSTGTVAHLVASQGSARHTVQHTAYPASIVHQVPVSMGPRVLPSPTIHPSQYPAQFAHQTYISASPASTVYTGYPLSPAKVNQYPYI

[9] = biological target: Serine/threonine-protein kinase pim-3 (Homo sapiens, UniProt Q86V86);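 further: value obtained as one member of a broad kinase panel profiling effort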
[10] = biological target: Protein kinase C gamma type (Homo sapiens, UniProt P05129)
[11] = biological target: Tyrosine-protein kinase Srms (Homo sapiens, UniProt Q9H3Y6);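 further: SRMS measured as one member of a kinome-wide kinase profiling panel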
[12] = biological target: Dual specificity tyrosine-phosphorylation-regulated kinase 3 (Homo sapiens, UniProt O43781);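 further: measured as one member of a broad kinase panel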
[13] = biological target: Hepatocyte growth factor receptor (Homo sapiens, UniProt P08581);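 further: kinase panel profiling across the kinome, with MET as the panel member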
Sequence of Hepatocyte growth factor receptor (P08581 whole entry): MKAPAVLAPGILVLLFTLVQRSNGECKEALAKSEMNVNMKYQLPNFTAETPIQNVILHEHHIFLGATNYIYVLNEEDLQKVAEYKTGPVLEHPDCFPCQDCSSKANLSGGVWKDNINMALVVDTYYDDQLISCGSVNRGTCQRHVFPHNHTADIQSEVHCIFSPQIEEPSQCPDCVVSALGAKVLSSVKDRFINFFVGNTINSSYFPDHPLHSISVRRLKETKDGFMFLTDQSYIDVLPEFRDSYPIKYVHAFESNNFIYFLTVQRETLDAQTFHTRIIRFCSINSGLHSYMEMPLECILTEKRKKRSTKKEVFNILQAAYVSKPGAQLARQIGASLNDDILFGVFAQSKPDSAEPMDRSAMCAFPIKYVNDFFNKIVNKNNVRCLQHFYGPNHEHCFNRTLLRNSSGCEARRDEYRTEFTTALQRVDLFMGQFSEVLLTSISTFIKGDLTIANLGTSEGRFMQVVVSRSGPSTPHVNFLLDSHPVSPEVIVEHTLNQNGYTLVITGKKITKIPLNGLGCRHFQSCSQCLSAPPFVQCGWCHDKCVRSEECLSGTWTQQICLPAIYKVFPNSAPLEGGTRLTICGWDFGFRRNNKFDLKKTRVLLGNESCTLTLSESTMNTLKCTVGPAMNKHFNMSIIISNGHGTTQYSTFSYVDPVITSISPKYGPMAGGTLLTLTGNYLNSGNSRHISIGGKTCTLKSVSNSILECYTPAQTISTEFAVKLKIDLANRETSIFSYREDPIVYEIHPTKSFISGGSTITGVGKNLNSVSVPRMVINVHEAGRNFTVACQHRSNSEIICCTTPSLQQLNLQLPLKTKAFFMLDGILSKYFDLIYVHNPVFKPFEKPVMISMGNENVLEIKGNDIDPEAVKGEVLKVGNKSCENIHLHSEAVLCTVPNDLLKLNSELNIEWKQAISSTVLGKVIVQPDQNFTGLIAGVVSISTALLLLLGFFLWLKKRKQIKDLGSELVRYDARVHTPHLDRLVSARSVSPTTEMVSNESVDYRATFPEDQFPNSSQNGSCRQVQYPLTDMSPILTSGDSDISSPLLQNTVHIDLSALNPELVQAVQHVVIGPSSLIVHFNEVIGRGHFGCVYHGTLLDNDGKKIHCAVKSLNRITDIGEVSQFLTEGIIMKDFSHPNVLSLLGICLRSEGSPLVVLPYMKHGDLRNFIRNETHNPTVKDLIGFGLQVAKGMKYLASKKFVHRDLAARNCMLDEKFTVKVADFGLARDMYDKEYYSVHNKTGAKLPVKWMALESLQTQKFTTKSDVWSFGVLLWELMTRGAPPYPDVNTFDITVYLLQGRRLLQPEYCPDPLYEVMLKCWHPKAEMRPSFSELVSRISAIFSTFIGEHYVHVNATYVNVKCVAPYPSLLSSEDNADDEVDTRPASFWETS

[14] = biological target: Receptor-type tyrosine-protein kinase FLT3 (Homo sapiens, UniProt P36888);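 further: FLT3 was tested as one member of a kinome-wide kinase panel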
Sequence of Receptor-type tyrosine-protein kinase FLT3 (P36888 whole entry): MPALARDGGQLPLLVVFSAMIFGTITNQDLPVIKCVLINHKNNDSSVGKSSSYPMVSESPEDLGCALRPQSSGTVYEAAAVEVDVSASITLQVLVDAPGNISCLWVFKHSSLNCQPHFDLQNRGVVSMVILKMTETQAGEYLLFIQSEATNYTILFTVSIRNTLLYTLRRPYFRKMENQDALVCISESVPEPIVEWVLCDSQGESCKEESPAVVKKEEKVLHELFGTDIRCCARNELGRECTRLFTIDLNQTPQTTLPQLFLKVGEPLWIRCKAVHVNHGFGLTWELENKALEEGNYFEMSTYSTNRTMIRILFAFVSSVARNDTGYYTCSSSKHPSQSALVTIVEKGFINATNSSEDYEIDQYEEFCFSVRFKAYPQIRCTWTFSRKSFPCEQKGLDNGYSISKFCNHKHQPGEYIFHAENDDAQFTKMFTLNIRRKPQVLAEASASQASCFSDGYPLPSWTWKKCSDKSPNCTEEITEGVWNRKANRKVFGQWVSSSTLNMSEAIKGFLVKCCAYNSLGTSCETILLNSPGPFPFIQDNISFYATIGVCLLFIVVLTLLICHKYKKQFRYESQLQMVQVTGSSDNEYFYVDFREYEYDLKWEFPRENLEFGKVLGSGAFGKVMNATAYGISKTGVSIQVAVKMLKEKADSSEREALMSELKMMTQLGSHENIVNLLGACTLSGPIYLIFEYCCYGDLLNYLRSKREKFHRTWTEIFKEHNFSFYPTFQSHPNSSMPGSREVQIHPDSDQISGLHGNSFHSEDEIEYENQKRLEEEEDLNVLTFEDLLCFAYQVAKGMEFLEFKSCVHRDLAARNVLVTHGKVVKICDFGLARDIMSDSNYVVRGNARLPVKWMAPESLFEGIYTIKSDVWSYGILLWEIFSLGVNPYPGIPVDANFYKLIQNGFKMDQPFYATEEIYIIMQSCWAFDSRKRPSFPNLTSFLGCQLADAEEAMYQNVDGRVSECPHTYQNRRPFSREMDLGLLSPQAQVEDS

[15] = biological target: Tyrosine-protein kinase Fyn (Homo sapiens, UniProt P06241)
[16] = biological target: Homeodomain-interacting protein kinase 4 (Homo sapiens, UniProt Q8NE63)
[17] = biological target: 3-phosphoinositide-dependent protein kinase 1 (Homo sapiens, UniProt O15530);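 further: value comes from the Navigating the Kinome panel, PDPK1 member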
[18] = biological target: Serine/threonine-protein kinase DCLK1 (Homo sapiens, UniProt O15075);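 further: affinity for DCLK1 (listed as DCAMKL1) measured as one member of a kinome-wide kinase profiling panel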
Sequence of Serine/threonine-protein kinase DCLK1 (O15075 whole entry): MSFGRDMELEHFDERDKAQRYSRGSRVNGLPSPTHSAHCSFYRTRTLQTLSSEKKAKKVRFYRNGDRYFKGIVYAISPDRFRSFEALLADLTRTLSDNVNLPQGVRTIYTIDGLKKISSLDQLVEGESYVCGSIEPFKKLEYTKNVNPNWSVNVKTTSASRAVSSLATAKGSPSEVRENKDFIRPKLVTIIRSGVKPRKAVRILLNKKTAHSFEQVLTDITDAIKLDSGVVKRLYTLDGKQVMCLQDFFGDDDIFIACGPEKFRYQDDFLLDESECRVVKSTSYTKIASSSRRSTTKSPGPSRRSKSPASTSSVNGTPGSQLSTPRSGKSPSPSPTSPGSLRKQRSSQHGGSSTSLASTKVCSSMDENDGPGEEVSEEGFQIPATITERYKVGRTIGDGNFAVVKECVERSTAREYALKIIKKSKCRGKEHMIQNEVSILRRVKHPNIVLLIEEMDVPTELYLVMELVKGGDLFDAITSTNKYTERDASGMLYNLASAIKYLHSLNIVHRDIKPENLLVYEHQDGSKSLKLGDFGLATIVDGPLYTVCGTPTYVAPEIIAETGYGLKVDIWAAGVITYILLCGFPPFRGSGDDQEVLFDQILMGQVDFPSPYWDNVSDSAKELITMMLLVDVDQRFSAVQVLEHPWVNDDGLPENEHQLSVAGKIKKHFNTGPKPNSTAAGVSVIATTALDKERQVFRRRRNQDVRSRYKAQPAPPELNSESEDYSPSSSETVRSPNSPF

[19] = biological target: Fibroblast growth factor receptor 3 (Homo sapiens, UniProt P22607)
[20] = biological target: Protein kinase C theta type (Homo sapiens, UniProt Q04759); test: Navigating the Kinome. Panel member name: PRKCQ
[21] = biological target: Activin receptor type-1 (Homo sapiens, UniProt Q04771); test: Navigating the Kinome. Panel member name: ACVR1
[22] = biological target: Leucine-rich repeat serine/threonine-protein kinase 2 (Homo sapiens, UniProt Q5S007);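 further: value from a broad kinome-wide panel profiling study in which LRRK2 was one of the kinases tested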
[23] = biological target: Rho-associated protein kinase 1 (Homo sapiens, UniProt Q13464);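 further: measured within a broad kinome-wide panel profiling many kinases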
[24] = biological target: Cyclin-dependent kinase 9 (Homo sapiens, UniProt P50750);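 further: value from the CDK9 entry of a kinome-spanning kinase panel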
[25] = biological target: Dual specificity protein kinase CLK4 (Homo sapiens, UniProt Q9HAZ1)
[26] = biological target: Macrophage-stimulating protein receptor (Homo sapiens, UniProt Q04912); test: Navigating the Kinome. Panel member name: MST1R

| SMILES | Ki [1] | Ki [2] | Ki [3] | Ki [4] | Ki [5] | Ki [6] | Ki [7] | Ki [8] | Ki [9] | Ki [10] | Ki [11] | Ki [12] | Ki [13] | Ki [14] | Ki [15] | Ki [16] | Ki [17] | Ki [18] | Ki [19] | Ki [20] | further results |
| --- | --- | --- | --- | --- | --- | --- | --- | --- | --- | --- | --- | --- | --- | --- | --- | --- | --- | --- | --- | --- | --- |
| NC1CCC(Nc2nccc(-c3c[nH]c4ncccc34)n2)CC1 (configuration not stated) | > 7.94 µM (inactive) | 0.794 µM (active) | 2.51 µM (active) | 0.316 µM (active) | 7.94 µM (active) | 0.398 µM (active) | > 1.58 µM (inactive) | 0.0158 µM (active) | 0.2 µM (active) | 0.158 µM (active) | > 1.58 µM (inactive) | 0.0631 µM (active) | > 3.16 µM (inactive) | 0.0631 µM (active) | > 0.794 µM (inactive) | 2.51 µM (active) | 1.26 µM (active) | 1 µM (active) | > 2 µM (inactive) |  |  |
| OCc1cc(-c2ccc3[nH]ncc3c2)on1 |  |  |  |  |  | 100 µM (active) |  |  |  |  |  |  | 31.6 µM (active) |  |  |  |  |  |  | 12.6 µM (active) | Ki [21]: 20 µM (active); Ki [22]: 3.98 µM (active); Ki [23]: 0.398 µM (active); Ki [24]: 5.01 µM (active); Ki [25]: 0.0316 µM (active); Ki [26]: 39.8 µM (active) |
| COC(C(=O)N1Cc2[nH]nc(NC(=O)c3ccc(N4CCN(C)CC4)cc3)c2C1)c1ccccc1 (configuration not stated) | > 7.94 µM (inactive) | > 1.58 µM (inactive) | > 6.31 µM (inactive) |  | > 10 µM (inactive) |  | 0.0398 µM (active) | > 3.16 µM (inactive) | > 7.94 µM (inactive) | > 7.94 µM (inactive) | 0.0501 µM (active) | > 6.31 µM (inactive) |  |  |  | > 7.94 µM (inactive) | > 3.98 µM (inactive) | 0.0398 µM (active) | 0.0316 µM (active) |  |  |
| CC(C)(O)c1cn(-c2ccc3[nH]ncc3c2)nn1 |  |  |  | 100 µM (active) |  |  |  |  |  |  |  |  |  | 50.1 µM (active) | 100 µM (active) |  |  |  |  | 39.8 µM (active) | Ki [21]: 79.4 µM (active); Ki [22]: 12.6 µM (active); Ki [23]: 0.794 µM (active); Ki [24]: 10 µM (active); Ki [25]: 0.0794 µM (active); Ki [26]: 39.8 µM (active) |
